The target of test [1] is T1, panel of 442 kinases (Homo sapiens, UniProt O95382).
T1 construct: purchased KINOMEscan
T1 sequence (O95382 1-1288): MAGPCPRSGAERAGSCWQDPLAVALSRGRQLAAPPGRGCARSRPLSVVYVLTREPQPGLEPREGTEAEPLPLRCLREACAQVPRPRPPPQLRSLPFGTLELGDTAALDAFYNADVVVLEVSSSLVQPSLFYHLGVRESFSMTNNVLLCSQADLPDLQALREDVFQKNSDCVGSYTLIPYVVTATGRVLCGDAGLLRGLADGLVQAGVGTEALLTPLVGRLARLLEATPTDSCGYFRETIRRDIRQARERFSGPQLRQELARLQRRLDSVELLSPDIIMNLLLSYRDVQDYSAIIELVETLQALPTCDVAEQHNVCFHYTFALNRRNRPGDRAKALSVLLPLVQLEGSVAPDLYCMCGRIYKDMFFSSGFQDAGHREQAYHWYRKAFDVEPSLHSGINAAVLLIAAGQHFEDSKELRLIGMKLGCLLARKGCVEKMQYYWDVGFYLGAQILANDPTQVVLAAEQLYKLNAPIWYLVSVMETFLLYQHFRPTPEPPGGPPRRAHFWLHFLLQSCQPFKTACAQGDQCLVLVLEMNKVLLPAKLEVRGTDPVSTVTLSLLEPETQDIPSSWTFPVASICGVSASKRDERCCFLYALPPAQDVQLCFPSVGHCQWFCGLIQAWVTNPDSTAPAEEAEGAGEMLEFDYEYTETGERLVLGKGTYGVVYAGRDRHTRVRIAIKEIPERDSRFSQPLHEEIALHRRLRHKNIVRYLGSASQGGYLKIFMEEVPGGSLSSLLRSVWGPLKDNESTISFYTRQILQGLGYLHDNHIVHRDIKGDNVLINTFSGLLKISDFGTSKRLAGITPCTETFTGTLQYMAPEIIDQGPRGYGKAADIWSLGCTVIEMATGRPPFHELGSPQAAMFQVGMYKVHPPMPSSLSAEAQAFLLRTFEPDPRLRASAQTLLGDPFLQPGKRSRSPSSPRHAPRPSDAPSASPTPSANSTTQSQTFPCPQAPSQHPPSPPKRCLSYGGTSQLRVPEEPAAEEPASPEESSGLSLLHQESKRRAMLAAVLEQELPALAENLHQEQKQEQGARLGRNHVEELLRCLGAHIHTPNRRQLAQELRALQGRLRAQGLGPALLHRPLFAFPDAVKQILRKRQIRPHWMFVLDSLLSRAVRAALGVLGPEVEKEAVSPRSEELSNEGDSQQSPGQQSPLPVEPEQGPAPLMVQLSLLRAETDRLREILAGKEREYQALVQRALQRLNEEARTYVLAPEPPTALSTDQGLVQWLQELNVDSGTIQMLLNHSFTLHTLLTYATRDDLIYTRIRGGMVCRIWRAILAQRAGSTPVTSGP
It is filed as binding. Conditions: Compound Concentration 10 µM. The source says:
(§1) We assessed the selectivity of members of this scaffold using the KINOMEscan methodology across a near comprehensive panel of 442 kinases [[18,27]].

The target of test [2] is T2, panel of 442 kinases (Homo sapiens, UniProt Q13523).
T2 construct: purchased KINOMEscan
It is filed as binding. Conditions: Compound Concentration 10 µM.
Description: as §1

T2 sequence (Q13523 whole entry): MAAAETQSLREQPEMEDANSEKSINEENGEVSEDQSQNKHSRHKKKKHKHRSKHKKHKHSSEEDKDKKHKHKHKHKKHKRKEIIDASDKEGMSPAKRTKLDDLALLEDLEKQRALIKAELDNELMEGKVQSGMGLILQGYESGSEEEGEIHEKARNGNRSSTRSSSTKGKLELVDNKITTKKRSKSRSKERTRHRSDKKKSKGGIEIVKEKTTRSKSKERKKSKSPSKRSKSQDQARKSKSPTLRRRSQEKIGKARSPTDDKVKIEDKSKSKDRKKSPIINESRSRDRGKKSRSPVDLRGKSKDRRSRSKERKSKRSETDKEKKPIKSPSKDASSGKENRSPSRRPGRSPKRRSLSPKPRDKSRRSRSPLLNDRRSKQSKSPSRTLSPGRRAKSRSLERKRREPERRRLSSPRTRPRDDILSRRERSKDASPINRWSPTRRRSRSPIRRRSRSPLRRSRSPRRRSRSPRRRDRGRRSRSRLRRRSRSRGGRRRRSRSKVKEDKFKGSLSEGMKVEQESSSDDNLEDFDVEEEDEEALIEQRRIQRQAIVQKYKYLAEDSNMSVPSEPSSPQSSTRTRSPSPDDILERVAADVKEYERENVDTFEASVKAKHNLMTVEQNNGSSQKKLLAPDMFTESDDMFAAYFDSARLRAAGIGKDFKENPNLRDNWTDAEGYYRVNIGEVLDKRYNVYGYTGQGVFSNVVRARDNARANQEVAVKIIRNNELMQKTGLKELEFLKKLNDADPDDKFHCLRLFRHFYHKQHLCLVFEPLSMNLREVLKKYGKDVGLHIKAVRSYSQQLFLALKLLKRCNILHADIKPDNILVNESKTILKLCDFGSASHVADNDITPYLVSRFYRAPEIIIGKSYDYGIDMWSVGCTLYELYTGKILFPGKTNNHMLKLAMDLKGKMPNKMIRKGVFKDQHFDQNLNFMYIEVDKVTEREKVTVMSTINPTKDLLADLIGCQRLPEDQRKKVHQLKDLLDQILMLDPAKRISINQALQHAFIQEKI

Regarding `COc1cc(C(=O)N2CCC(N3CCN(C)CC3)CC2)ccc1Nc1ncc2c(n1)N(C)c1ccccc1C(=O)N2C` [15 (LRRK2-IN-1)], at panel of 442 kinases [1], the “KINOMEscan: ASK2” value was found to be 100. Moreover, the “KINOMEscan: PRP4” value at panel of 442 kinases [2] is 93.
In the same order, the values of `COc1cc(C(=O)N2CCC(N3CCN(C)CC3)CC2)ccc1Nc1ncc2c(n1)N(C1CCCC1)c1ccccc1C(=O)N2C` [Compound 25, 11-cyclopentyl-2-((2-methoxy-4-(4-(4-methylpiperazin-1-yl)piperidine-1-carbonyl)phenyl)amino)-5-methyl-5H-benzo[e]pyrimido[5,4-b][1,4]diazepin-6(11H)-one] are 100 and 95.
In the same order, the values of `CCOc1cc(C(=O)N2CCC(N3CCN(C)CC3)CC2)ccc1Nc1ncc2c(n1)N(C1CCCC1)c1ccccc1C(=O)N2C` [Compound 26] are 100 and 100.

These data come from article PMC3914206.
